“Also recorded” adds a separate entry of the source.
Tests used:
[1] = tested on: human retinal pigment epithelial cell line ARPE-19; test: Protection efficiency test of retinal pigment epithelial cell (NaIO3-induced apoptosis, MTT assay); format: cell-based; conditions: 10 mM NaIO3 then 1 μM compound
Method: A human retinal pigment epithelial cell line ARPE-19 was treated with 10 mM of NaIO3, which is a retinal pigment epithelial cell apoptosis inducing agent, to induce apoptosis and then, it was treated with compound 2 of the invention, that is, (5-(1,1-dioxo-thiomorpholine-4-yl)methyl-2-phenyl-1H-indole-7-yl)-(1-methanesulfonyl-piperidine-4-yl)-amine (Enzo Life Sciences, Inc.) of 1 μM, and the compound treatment group and the non-treatment group were analyzed about their apoptosis degree using an MTT assay and survived cells were comparatively analyzed.

white rat retina explant = test: Retinal nerve cell protection efficiency test on low oxygen stimulation (retinal explant culture); format: cell-based; conditions: hypoxic chamber 30 min, 1 μM compound, cultivated 3 days
Method: A white rat retina was cultivated overnight under explant culture conditions and then, damaged with low oxygen in a hypoxic chamber for 30 min., and cultivated for 3 days with or without being treated with compound 2 of 1 μM, and after the cultivation, the obtained retinal explants were stained and observed using a microscope.

corneal wound models = test: Corneal wound healing effect test (corneal epithelium removal model); format: in vivo, New Zealand white rabbits
Method: It was examined whether the compounds of formula (1) show clinically stable corneal wound healing effects in ophthalmologic surgery such as LRP (laser reversal of presbyopia), LASIK (laser assisted in-situ keratomileusis) and LASEK (laser assisted sub-epithelial keratomileusis). For this, 16 New Zealand white rabbits of 2.0˜2.5 kg were prepared as test animals, anesthetized via intramuscular injection with 15 mg/kg of Zoletil and 5 mg/kg of Xylazine, and then their corneal epitheliums with diameters of 10-12 mm or so were removed using a surgery blade (No. 15) and a rotary epithelial scrubber to produce corneal wound models. At 30 min. after the above-mentioned surgery, two drops of compound 1, that is, (tetrahydropyran-4-ylmethyl)-[2-phenyl-5-(1,1-dioxo-thiomorpholine-4-yl)methyl-1H-indole-7-yl]amine) (KDR Biotech. Co., Ltd., Seoul, Korea) of 50 μM were applied to the experimental group and two drops of a physiological saline were applied to the control group and then, they wore contact lenses, and one drop of the same medicines was applied at 12-hour intervals. To measure a wound area in the experimental group and the control group, their corneal surfaces were stained with Fluorescin using Fluorescin (Haag-Streit International, Switzerland) strips and their diameters were measured using a microcaliper at 24-hour intervals. In the meantime, for the histological evaluation of the experimental group and the control group, they were anesthetized with 25% urethane on the first, second and third day to extract their eyeballs and then, their anterior eye parts including cornea were embedded in wax (Polyscience, USA) to produce 5-μm fragments, which were then stained with Hematoxylin & Eosin and observed using a microscope.

[2] = tested on: MNU (N-methyl-N-nitrosourea)-induced retinal degeneration models; test: Efficiency test in MNU-induced retinal degeneration animal model; format: in vivo, Sprague-Dawley rats
Method: The compounds of formula (1) were applied to retinal degeneration which is hard to cure or incurable to evaluate their effects. For this, 3 250-g Sprague-Dawley rats were prepared as a test animal, and injected with 75 mg/kg of N-methyl-N-nitrosourea (MNU) via an intraperitoneal route to induce retinal degeneration, thereby to produce retinal degeneration models. At 30 min. after the retinal degeneration induction, 10 μl of compound 1, that is, (tetrahydropyran-4-ylmethyl)-[2-phenyl-5-(1,1-dioxo-thiomorpholine-4-yl)methyl-1H-indole-7-yl]amine) (KDR Biotech. Co., Ltd., Seoul, Korea) of 50 μM and a physiological saline was injected into the vitreous body of the experimental group and the control group, respectively and then, the same medicines were injected via the same methods after 72 hours of the retinal degeneration induction. To evaluate the healing effects of retinal degeneration in the experimental group and the control group, on the 5th day of the retinal degeneration induction, the animals were anesthetized using 8% chloral hydrate (0.5 mg/kg) and subjected to electroretinogram (ERG) test (UTAS-2000; LKC Technologies, USA), in which scotopic response was recorded as a single flash response having a strength of 0.9 log (cd s) m^−2 or higher. In the meantime, for the histological evaluation of the experimental group and the control group, their eyeballs were extracted from the animals which completed the electroretinogram test on the 5th day of the retinal degeneration induction to produce eyecups, and then they were embedded in wax to produce 5-μm fragments, which were then stained with Hematoxylin & Eosin and observed using a microscope.

[3] = 10 μl of 50 μM intravitreal at 30 min and 72 hours, ERG on 5th day

Compound	survived cells (MTT assay) in comparison with control group [1]	outer nuclear layer (ONL) and inner nuclear layer (INL) of retinal explant after low oxygen damage (white rat retina explant)	time until corneal wound healed (Fluorescin stain) (corneal wound models; 50 μM eye drops at 12-hour intervals, saline control healed on the 4th to 5th day)	healing effect on damaged corneal area (fluorescin staining) in comparison with control group (corneal wound models; 50 μM eye drops, damaged areas right after wound induction and on the third day)	corneal epithelium in Hematoxylin & Eosin stained corneal tissue fragments (corneal wound models; 50 μM eye drops, third day of drug treatment, control epithelium remained damaged)	ERG response higher than the control group [2, 3]	electroretinogram a- and b-wave response compared to control group [2, 3]	retinal tissue fragments stained with Hematoxylin & Eosin (histology) ([2]; 10 μl of 50 μM intravitreal, 5th day, control showed severe retinal degeneration)
CS(=O)(=O)N1CCC(Nc2cc(CN3CCS(=O)(=O)CC3)cc3cc(-c4ccccc4)[nH]c23)CC1 [compound 2, (5-(1,1-dioxo-thiomorpholine-4-yl)methyl-2-phenyl-1H-indole-7-yl)-(1-methanesulfonyl-piperidine-4-yl)-amine]	statistically significant (* P<0.05; Student's t-test) survival results	well preserved						
O=S1(=O)CCN(Cc2cc(NCC3CCOCC3)c3[nH]c(-c4ccccc4)cc3c2)CC1 [compound 1, (tetrahydropyran-4-ylmethyl)-[2-phenyl-5-(1,1-dioxo-thiomorpholine-4-yl)methyl-1H-indole-7-yl]amine]			≤ 3 days	statistically significant (*** P<0.001) healing effect	completely restored	200%	increased response in both a- and b-waves	close to a normal tissue; also recorded: well-aligned retinal structure
